Test results: patent US20040126792A1, “Synthesis and applications of trinucleotide pCpCpA-3'-NH-aminoacyl derivatives” (priority 2002, published 2004)

Tests used:
[1] = tested on: S30 extract peptidyltransferase; experiment: Peptidyltransferase gel-shift assay in the presence of antibiotics, S30 extract; type: biochemical, E. coli; settings: 100 μM antibiotic, substrates CCA-Met-Biotin and 32P-CCA-NH-Phe, 37° C.
Description: (§1) Assay reactions were carried out with: 50S or 70S subunits from the bacterial ribosome (prepared from E. coli MRE600), or S30 extract (purchased from Promega); 50 μM CCA-Met-Biotin or tRNA-Met-Biotin; trace amounts of ^32P-CCA-NH-Phe (˜0.5 nM); 100 μM antibiotic in the presence of 50 mM Tris•HCl (pH 7.5); 35 mM MgCl2; 100 mM NH4Cl; and 1000 mM KCl, at 37° C. For each reaction, the same amount of 50S or 70S (10 pmol) was included, but the S30 concentration was not determined.
(§2) Reactions were initiated by addition of ^32P-CCA-NH-Phe. A 1-μL aliquot of the reaction mixture was removed at specific time points, quenched with 2 μL quench buffer (formamide +0.05% xylene cyanol), and loaded on 24%/7.5 M urea polyacrylamide denaturing gel.
(§3) The substrates used in these reactions were CCA-Met-Biotin and ^32P-CCA-NH-Phe. The lower band corresponds to the labeled ^32P-CCA-NH-Phe and the top band is the dipeptide product (^32P-CCA-NH-Phe-Met-Biotin).

[2] = tested on: 50S ribosome peptidyltransferase; experiment: Peptidyltransferase activity assay in the presence of antibiotics, 50S ribosome; settings: 100 μM antibiotic, tRNA-Met-Biotin versus CCA-Met-Biotin substrate
Description: as §1
Reactions were initiated by addition of ^32P-CCA-NH-Phe. A 1-μL aliquot of the reaction mixture was removed at specific time points, quenched with 2 μL quench buffer (formamide +0.05% xylene cyanol), and loaded on 24%/7.5 M urea polyacrylamide denaturing gel. Reaction products were quantitated with a Molecular Dynamics PhosphorImager™, and the fraction of individual product relative to total reactants was plotted against time (see FIGS. 11-14).
(§4) Reaction conditions for these studies were the same as described above.

[3] = tested on: 70S ribosome peptidyltransferase; experiment: Peptidyltransferase activity assay in the presence of antibiotics, 70S ribosome; settings: 100 μM antibiotic; 70S versus 50S
Description: as §1, §2, §3, §4

SMILES	Inhibition of peptidyltransferase activity (gel-shift, FIG. 10A) [1]	Effect on activity of 50S-tRNA compared with 50S-CCA [2]	Inhibition of 70S reactions compared with 50S reactions [3]
CSC[S@+]([O-])C[C@H](CO)NC(=O)/C=C/c1c(C)[nH]c(=O)[nH]c1=O [sparsomycin]	greatly inhibited	much less unaffected than that of 50S-CCA	–
[H]/N=C(/N)N[C@H]1[C@H](O)[C@@H](O)[C@H](O[C@@H]2O[C@@H](C)[C@](O)(C=O)[C@H]2O[C@@H]2O[C@@H](CO)[C@H](O)[C@@H](O)[C@@H]2NC)[C@@H](N/C(N)=N\[H])[C@@H]1O [streptomycin]	not inhibited	–	–
CC[C@H]1OC(=O)[C@H](C)[C@@H](O[C@H]2C[C@@](C)(OC)[C@@H](O)[C@H](C)O2)[C@H](C)[C@@H](O[C@@H]2O[C@H](C)C[C@H](N(C)C)[C@H]2O)[C@](C)(O)C[C@@H](C)C(=O)[C@H](C)[C@@H](O)[C@]1(C)O [erythromycin]	greatly inhibited	–	much more strongly than 50S reactions
O=C(N[C@H](CO)[C@H](O)c1ccc([N+](=O)[O-])cc1)C(Cl)Cl [chloramphenicol]	greatly inhibited	–	–
COc1ccc(C[C@H](N)C(=O)N[C@H]2[C@@H](O)[C@H](n3cnc4c(N(C)C)ncnc43)O[C@@H]2CO)cc1 [puromycin]	does not significantly inhibit	–	much more strongly than 50S reactions
